Assay results published in US20080153792A1, “Drug Identification and Treatment Method” (priority 2006, published 2008).

Tests used:
[1] = tested on: monocyte chemoattractant protein-1 (MCP-1); assay: MCP-1 RNA in perigonadal fat tissue, quantitative RT/PCR; type: in vivo, mouse; settings: 20 mg/kg; normalized with respect to the vehicle control
Procedure: In another study, total RNA from perigonadal fat tissue from lean db/+ or diabetic db/db mice treated with 20 mg/kg of 17α-ethynylandrost-5-ene-3β,7β,17β-triol was isolated and processed for quantitative RT/PCR using primers specific for monocyte chemoattractant protein-1 (MCP-1) using an iCycler iQ multicolor real time-detection system (Bio-Rad). RNA expression levels were normalized with respect to the vehicle control. […] For this study, vehicle was also administered to a control group of age matched lean heterozygous db/+ mice (n=7).

[2] = tested on: db/db C57BL/Ks mice; assay: glucose lowering in diabetic db/db mice; type: in vivo, mouse
Procedure: Glucose lowering and amelioration of insulin resistance. Glucose lowering effects and amelioration of insulin resistance was assessed in the diabetic db/db mouse model of human diabetes and insulin resistance. In these studies, db/db C57BL/Ks mice of approximately 8 to 10 weeks of age were divided into groups of 10 each and then treated with a vehicle control (no drug) or 17α-ethynylandrost-5-ene-3β,7β,17β-triol by oral gavage. The compound was administered twice a day at 20 mg/kg/day (10 mg/kg dose administered twice per day), 40 mg/kg/day (20 mg/kg dose administered twice per day) or 80 mg/kg/day (40 mg/kg dose administered twice per day) for up to 28 days. Blood glucose levels were monitored twice a week during the dosing period, using a minute amount of blood (nick tail bleeds) to measure the concentration of glucose by glucometer strips. At specific times during the dosing period (day 14 and day 28), an oral glucose tolerance test (OGTT) was also performed by administering a standard oral dose of 1 g/kg glucose (approximately 40 mg in a […]) and then the fluctuation of blood glucose levels was monitored quickly thereafter after at 15, 30, 60 and 120 minutes after the glucose dose. […] Blood glucose approached 380 mg/dL in the vehicle control group and was <230 mg/dL after at least 10 days of dosing in the drug treated group.
A treatment protocol similar to that described in example 15 was performed with db/db mice that were younger than the animals described in example 15. The animals (n=8 to 10 per group) were treated with 17α-ethynylandrost-5-ene-3β,7β,17β-triol or vehicle by oral gavage twice per day at 40 mg/kg/day (20 mg/kg dose given twice per day) and 80 mg/kg/day (40 mg/kg dose given twice per day). At the start of dosing, the animals were 6 weeks of age, before the onset of elevated glucose levels or hyperglycemia. Dosing with vehicle or drug was maintained for 32 days to determine the effect of the treatments on the onset and rate of progression of hyperglycemia in the animals. In the control group, the onset of hyperglycemia was observed after 25 days of dosing and it continued to worsen, i.e., blood glucose levels rose from normal to frank hyperglycemia, through the end of the 32 day dosing period.

[3] = target: androgen receptor (Homo sapiens, UniProt P10275); assay: interaction with androgen receptor
[4] = tested on: BALB/C mice, TNP-OVA sensitized; assay: reporter antigen popliteal lymph node (PLN) assay; type: in vivo, mouse; settings: for average number of lymphocytes in PLNs: day 5
Text: Analysis of immune suppression. Glucocorticoid steroids such as dexamethasone or hydrocortisone are typically immune suppressive and have significant toxicities associated with their use. Immune suppression was examined in a reporter antigen popliteal lymph node assay in mice essentially as previously described (C. Goebel et al., Inflamm. Res., 45(Suppl. 2):S85-S90, 1996; R. Pieters et al., Environmental Health Perspectives 107(Suppl. 5):673-677,1999). […] In this protocol, the vehicle was 0.1% carboxymethylcellulose, 0.9% saline, 2% tween 80 and 0.05% phenol, which contained 17α-ethynylandrost-5-ene-3β,7β,17β-triol in suspension in drug treated animals. Assessment of activity included (1) measuring suppression of numbers of total lymphocytes, antigen specific IgM, IgG1 and IgG2a antibody secreting cells (ASC) (ELISPOT assay) in popliteal lymph node cells; (2) analysis of cell surface marker (CD4, CD8, CD19, F480, CD80, CD86) expression by flow cytometry of living cells in suspension; and (3) IL-4, TNFα and IFNγ production by lymphocytes in vitro (ELISA).
Groups (n=5 per group) of specific pathogen free BALB/C mice were used. The Positive control group was treated with vehicle (oral gavage) and 5 μg/day dexamethasone by subcutaneous injection to induce immune suppression. Vehicle control animals (negative control) were treated with vehicle alone (oral gavage). One group of animals was treated with 17α-ethynylandrost-5-ene-3β,7β,17β-triol at 0.1 mg/day by oral gavage. Another group was treated with 1 mg/day of 17α-ethynylandrost-5-ene-3β,7β,17β-triol was administered to the animals oral gavage. The results were analyzed by two-tailed Student's t-test with equal variance. The animals were injected in the right hind footpad with 50 μL of freshly prepared sensitizing dose of TNP-OVA. Dexamethasone (decadron phosphate injection; dexamethasone sodium phosphate) was administered by subcutaneous injection into the nape of the neck daily, immediately following sensitization with TNP-OVA. 17α-Ethynylandrost-5-ene-3β,7β,17β-triol was given immediately afterwards by gavage. Five days after injection of TNP-OVA, blood was drawn by orbital puncture, and the mice were euthanized by cervical dislocation and popliteal lymph nodes were removed and separated from adherent fatty tissue. Single cell suspensions were prepared, resuspended in 1 mL PBS-BSA (1%) and counted. Cell numbers, IL-4, IL-5 and IFNγ were measured.

[5] = tested on: mice treated daily with dexamethasone; assay: osteoprotegerin levels in dexamethasone treated mice; type: in vivo, mouse; settings: vehicle, dexamethasone 10 μg/day and compound at 4 mg/kg/day; p<0.05
Procedure: Osteoprotegerin levels in mice that were treated with vehicle and dexamethasone at 10 μg/day (positive control group) had 3.3 pMol/L osteoprotegerin, while animals treated with vehicle, dexamethasone and 17α-ethynyl-5-androstene-3β,7β,17β-triol at 4 mg/kg/day had 6.4 pMol/L osteoprotegerin (p<0.05).

androgen receptor, sequence (P10275 whole entry, species assumed): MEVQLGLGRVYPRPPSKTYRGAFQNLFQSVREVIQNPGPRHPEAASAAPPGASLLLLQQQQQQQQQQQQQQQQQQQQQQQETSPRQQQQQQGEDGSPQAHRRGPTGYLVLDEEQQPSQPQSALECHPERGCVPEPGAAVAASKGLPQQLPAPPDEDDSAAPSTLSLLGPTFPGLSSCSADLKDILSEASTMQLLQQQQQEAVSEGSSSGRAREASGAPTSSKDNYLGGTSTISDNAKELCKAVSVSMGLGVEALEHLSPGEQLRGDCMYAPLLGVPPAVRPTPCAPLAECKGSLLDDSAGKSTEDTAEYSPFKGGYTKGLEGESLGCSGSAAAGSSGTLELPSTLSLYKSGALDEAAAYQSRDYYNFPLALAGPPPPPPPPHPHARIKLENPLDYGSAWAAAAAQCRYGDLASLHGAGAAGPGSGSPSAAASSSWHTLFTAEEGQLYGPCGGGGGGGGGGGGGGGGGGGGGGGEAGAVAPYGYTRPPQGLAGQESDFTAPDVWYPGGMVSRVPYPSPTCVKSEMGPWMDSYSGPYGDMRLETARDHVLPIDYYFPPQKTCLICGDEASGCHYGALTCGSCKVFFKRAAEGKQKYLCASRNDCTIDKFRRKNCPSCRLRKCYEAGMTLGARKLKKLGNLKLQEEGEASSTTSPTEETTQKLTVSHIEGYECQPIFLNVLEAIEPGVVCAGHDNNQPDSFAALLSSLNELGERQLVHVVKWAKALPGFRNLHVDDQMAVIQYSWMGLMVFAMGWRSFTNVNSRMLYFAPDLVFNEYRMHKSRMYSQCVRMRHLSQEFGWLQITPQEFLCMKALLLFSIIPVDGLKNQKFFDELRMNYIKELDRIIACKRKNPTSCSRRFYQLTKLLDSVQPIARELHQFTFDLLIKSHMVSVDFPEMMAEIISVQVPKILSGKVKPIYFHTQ

Q: For C#C[C@]1(O)CC[C@H]2[C@@H]3[C@@H](O)C=C4C[C@@H](O)CC[C@]4(C)[C@H]3CC[C@@]21C [17α-ethynylandrost-5-ene-3β,7β,17β-triol], which “decrease of levels of MCP-1” value [1] is on record?
A: about 50%

Q: And the “peak glycemic excursion in OGTT” value ([2]; 80 mg/kg b.i.d. for 28 days, 30-min post-oral glucose, vehicle approximately 400 mg/dL)?
A: < 200 mg/dL

Q: And the “progression into the hyperglycemic state” value ([2]; 6 week old male db/db mice, 40 mg/kg)?
A: completely blocked progression

Q: What about the “basal blood glucose hyperglycemic levels” value ([2]; 8 week old male db/db mice, 40 mg/kg dose group, twice-a-day, apparent after 10 days) of the same compound?
A: markedly suppressed

Q: What about the blood glucose ([2]; after at least 10 days of dosing, vehicle approached 380 mg/dL) of the same compound?
A: < 230 mg/dL

Q: And the “levels of glucose by the end of the 32 day dosing period” value ([2]; db/db mice 6 weeks of age at start, 40 mg/kg/day and 80 mg/kg/day oral, twice per day)?
A: did not rise above normal levels

Q: And the “decrease in hyperglycemic blood glucose levels” value ([2]; db/db mice 8 to 10 weeks of age, oral gavage twice a day)?
A: approximately 40%

Q: And the “glucose intolerance in OGTTs compared to vehicle” value ([2]; treated db/db animals)?
A: significant amelioration of glucose intolerance

Q: And the “interaction with androgen receptor” value [3]?
A: do not interact

Q: What about the “average number of lymphocytes in PLNs” value ([4]; 0.1 mg/day by oral gavage) of the same compound?
A: 11.1×10^6 lymphocytes per lymph node

Q: What about the “average number of lymphocytes in PLNs” value ([4]; 1 mg/day by oral gavage) of the same compound?
A: 8.2×10^6 lymphocytes per lymph node

Q: What about the “IFNγ, IL-4 and IL-5 levels compared to the vehicle control group” value ([4]; compound 1.0 mg/day and 0.1 mg/day oral, dexamethasone 5 μg/day s.c.) of the same compound?
A: increased

Q: And the osteoprotegerin [5]?
A: 6.4 pmol/L
